Experiments:
VEGF = assay: Immunohistochemistry of VEGF in isolated pulmonary artery after short-term hypoxia; format: cell-based, rat; settings: short-term acute hypoxia; 40, 80 μM
Experimental: (§1) In our in vitro short-term experiment, isolated rat pulmonary artery was grown under normoxia (20% O2) or hypoxia (1% O2) at 37° C. for 24 hrs as was previously done (Wu BN, et al. Int J Immunopathol Pharmacol 24:925, 2011). The heart weight and body weight ratio (HW/BW) of the rats treated with one of SPAAX-1, SPAAX-1 RX complex, Sildenafil or Sildenafil RX complex each measured on the 21st hypoxic day. All animal care and the experimental protocols of this study were approved by the Animal Care and Use Committee of the Kaohsiung Medical University. Male Wistar rats (200-250 g), provided by the National Laboratory Animal Breeding and Research Center (Taipei, Taiwan), were housed under constant temperature and controlled illumination. Food and water were available ad libitum.
(§2) For histological analysis, the rat pulmonary right lung sections or pulmonary artery were fixed in 4% formaldehyde for 1 hour at 4° C. After washing with phosphate buffer saline (PBS), they were sent for paraffin-embedded serial-sections. Serial cross-sections 7 μm thick were obtained from the cross-section of each pulmonary artery. Tissue sections were deparaffinized and rehydrated in an ethanol series. After tissue rehydration, endogenous peroxidase activity was quenched with 3% hydrogen peroxide for 30 minutes, and the sections were gently washed in PBS. […]

eNOS = assay: Immunohistochemistry of eNOS in isolated pulmonary artery after short-term hypoxia; format: cell-based, rat; settings: short-term acute hypoxia; 40, 80 μM
Experimental: as §1, §2

With “L-sodium ascorbate+L-ascorbic acid buffer [ascorbic/ascorbate buffer]” the “IHC of VEGF in isolated pulmonary artery” value (VEGF) was “reduced” and the “IHC of eNOS in isolated pulmonary artery” value (eNOS) was “reduced”.

From patent US20150306107A1, “SAA Derivative Compound Restores eNOS And Inhibits Oxidative Stress-Induced A Diseases In Hypoxia” (JANSFAT BIOTECHNOLOGY CO., LTD., priority 2014, published 2015)
